Reference: the CheMixHub drug solubility set

Test: xn = mol fraction of the nth substance listed, in the solute-free solvent

CS(=O)(=O)c1ccc(C(O)C(CF)NC(=O)C(Cl)Cl)cc1 (configuration not stated) + CO + O
solubility (g/100 g solution)
Details	278.15 K	283.15 K	288.15 K	293.15 K	298.15 K	303.15 K	308.15 K	313.15 K	318.15 K
x2 = 0.05881	0.163	0.211	0.278	0.358	0.449	0.571	0.711	0.881	1.09
x2 = 0.1233	0.379	0.485	0.609	0.762	0.939	1.15	1.41	1.71	2.06
x2 = 0.1942	0.707	0.878	1.08	1.31	1.58	1.9	2.27	2.68	3.17
x2 = 0.2727	1.06	1.32	1.6	1.93	2.31	2.78	3.28	3.88	4.53
x2 = 0.3599	1.47	1.83	2.25	2.71	3.25	3.88	4.58	5.45	6.34
x2 = 0.4576	1.92	2.4	2.94	3.6	4.3	5.17	6.17	7.3	8.52
x2 = 0.5675	2.52	3.12	3.82	4.64	5.63	6.76	7.98	9.5	11
x2 = 0.6923	3.16	3.96	4.85	5.92	7.07	8.44	10.1	11.9	13.7
x2 = 0.835	3.91	4.85	5.98	7.23	8.65	10.3	12.2	14.2	16.5

O=c1ccc2ccccc2o1 + CO + O
solubility (g/100 g solution)
Details	278.15 K	283.15 K	288.15 K	293.15 K	298.15 K	303.15 K	308.15 K	313.15 K	318.15 K
x2 = 0.1	0.0349	0.0594	0.105	0.171	0.28	0.435	0.655	0.988	1.41
x2 = 0.2	0.147	0.236	0.385	0.598	0.922	1.43	2.06	3.08	4.3
x2 = 0.3	0.262	0.479	0.869	1.6	2.58	4.47	7.35	12.8	19.9
x2 = 0.4	0.573	1.11	1.99	3.53	6.25	10.8	17.7	28.7	41.9
x2 = 0.5	1.13	1.96	3.86	6.41	11.2	18.6	28.4	43.2	59.6
x2 = 0.6	1.82	3.3	5.98	9.8	16	24.8	38.3	52.1	67
x2 = 0.7	2.64	4.53	7.8	12.7	20.2	30.4	42.9	59.2	73.3
x2 = 0.8	3.28	5.51	9.32	15.7	22.1	34.3	46.8	62.9	77.3
x2 = 0.9	4.13	6.53	11.1	17.5	25.5	36.7	50.3	65.3	79.6
